Measured values published in US9969766B2, “20(R)-ginsenoside Rg3 polyacylated derivatives, preparation and application thereof” (priority 2014, dated 2018).

Key:
[1] = cited from earlier work
[2] = Solubility of the isolated products; assay type: physicochemical
mouse sarcoma S180 cells = assay: Mouse sarcoma S180 metastasis model; conditions: 100 mg/kg/d, ip × 2qod
Description: (§1) human breast cancer Bcap-37 model, human lung cancer A549 model, human intestinal cancer LOVO model, human stomach cancer MGC model and human liver cancer QGY model, with tumor cell lines being of the second generation or more, mouse B16 melanoma cell line, mouse Lewis lung cancer model, mouse sarcoma s180 model, all passaged and preserved in Pharmacological Division of Shanghai Institute of Pharmaceutical Industry. 3. Experiment Animals Origins: nude mice, 6-week old, 18-22 g/mouse, provided by Laboratory Animal Center of Chinese Academy of Sciences, Shanghai Branch, with certification No. 2001A032. C57BL/6 mice and Kunming mice, 18-22 g/mouse, provided by Laboratory Animal Center of Chinese Academy of Sciences, Shanghai Branch, with certification SYXK (Shanghai) 2004-0015. Gender: male or female, the same gender for each batch in experiment Animal numbers: 10 mice and 10 nude mice for each of positive control group and test group in experiment, and 20 for negative control group. 4. Experiment Design Dose Settings: doses for 20(R)-ginsenoside Rg3 octo-acetate, 20(R)-ginsenoside Rg3 octo-n-butyrate and 20(R)-ginsenoside Rg3 octo-n-propionate were set as high-dose group (0.3 mg/kg/d), medium-dose group (0.06 mg/kg/d), and low-dose group (0.012 mg/kg/d). Dosage regimen: oral administration, twice daily. human tumor model and cell-inoculated mouse model: po×14 bid; mouse tumor-inoculated model: po×10 bid. Control Trial: negative control group: given with the same volume of 5% CMC-Na as the test group, and the same dosage regimen as the test group. positive control group: Cyclophosphamide CTX 30 mg/kg, MMC 2 mg/kg and 5Fu 30 mg/kg by intraperitoneal or intravenous administration, once daily, for seven consecutive days. 5. Experiment Method and Key Steps 5.1 Anti-Tumor Test 5.1.1 Subcutaneous Inoculation Model

mouse Lewis lung cancer [3] = assay: Mouse Lewis lung cancer, toe subcutaneous inoculation, anti-tumor test; conditions: 100 mg/kg/d, ip × 14qod
Description: as §1, with “MMC 2 mg/kg and 5Fu 30 mg/kg by intraperitoneal or intravenous administration, once daily, for seven consecutive days.” left out
(§2) Tumor cells of vigorous growth stage were taken under sterile condition and made into cell suspensions of about 1-2×10^7/ml by homogenization, the suspensions were inoculated subcutaneously at 0.2 ml/mouse in host mice and repeated on the next day according to the experiment design, the animals in each group were slaughtered after about three weeks, the tumors were collected and weighed, and the tumor inhibition rates were calculated according to the following equation: tumor inhibition rate %=[(average tumor weight of control group-average tumor weight of treatment group)/average tumor weight of control group]×100%

mouse melanoma B16 cells = assay: Mouse melanoma B16 tail vein inoculation, lung metastasis; conditions: 100 mg/kg/d, ip × 2qod
Description: as §1

[4] = system: human stomach cancer MGC cells; assay: Human stomach cancer MGC in-situ inoculation, survival; conditions: 100 mg/kg/d, ip × 2qod
Description: as §1

[5] = system: human breast cancer Bcap-37 cells; assay: Human breast cancer Bcap-37 subcutaneous inoculation in nude mice; conditions: 100 mg/kg/d, ip × 2qod
Description: as §1, with “Cyclophosphamide CTX 30 mg/kg, MMC 2 mg/kg and 5Fu 30 mg/kg by intraperitoneal or intravenous administration, once daily, for seven consecutive days.” left out
as §2
The same operation was repeated in human tumor xenograft model, except that the feed, packing, cage and contact instruments were all sterilized under high pressure before use and the nude mice were fed in a laminar flow rack. The tumors and tumor-bearing animal weight gains were dynamically measured (tumor size measured using caliper: long diameter/a, short diameter/b, and tumor bulk=a×b^2/2).

[6] = system: human liver cancer QGY cells; assay: Human liver cancer QGY liver in-situ inoculation, survival; conditions: 100 mg/kg/d, ip × 2qod
Description: as §1
Under sterile condition, the in vivo passage of the second generation of QGY tumor source of vigorous growth stage was prepared into cell suspensions of about 1-2×10^7/ml by homogenization (1:6), and the homogenates were filtered using 100-mesh stainless steel screen, getting ready for use. The nude mice were disinfected routinely and anaesthetized and cut at the xiphoid in the middle of the abdominal cavity to expose the liver, the cell suspensions (0.05 ml) were injected into liver parenchyma using imported 28 ga ½ ml syringes, the abdominal cavity was closed and then sutured layer by layer. The nude mice were fed in the laminar flow rack, with all the feed, packing, cage and contact instruments being sterilized under high pressure before use.

[7] = system: human intestinal cancer LOVO cells; conditions: 100 mg/kg/d, ip × 2qod
Description: as §1, with “MMC 2 mg/kg and 5Fu 30 mg/kg by intraperitoneal or intravenous administration, once daily, for seven consecutive days.” left out
LOVO intestinal cancer cells (cultured in vitro) of logarithmic growth stage were taken under sterile condition and prepared into cell suspensions of about 1.8×10^7/ml using RPMI1640 culture medium as diluent. The nude mice were subjected to general anesthesia and cut in belly after routine disinfection to belly skin, the spleens were taken out and inoculated with LOVO intestinal cancer cell suspensions (0.05 ml/mouse) and then restored, the incisions were sutured, and the mice were placed in the cages and then put in the laminar flow rack.

mouse Lewis lung cancer [8] = assay: Mouse Lewis lung cancer (subcutaneous inoculation) metastasis model; conditions: 100 mg/kg/d, ip × 2qod
Description: as §1, §2

[9] = system: human lung cancer A549 cells; assay: Human lung cancer A549 (subcutaneous inoculation) metastasis model; conditions: 100 mg/kg/d, ip × 2qod

CC(C)=CCC[C@@](C)(O)[C@H]1CC[C@]2(C)[C@@H]1[C@H](O)C[C@@H]1[C@@]3(C)CC[C@H](O[C@@H]4O[C@H](CO)[C@@H](O)[C@H](O)[C@H]4O[C@@H]4O[C@H](CO)[C@@H](O)[C@H](O)[C@H]4O)C(C)(C)[C@@H]3CC[C@]12C [20 (R)-ginsenoside Rg3, 20 (R)-Ginsenoside Rg3]
Solubility in low polarity or non-polar solvent ([1]; petroleum ether, chloroform and other low polarity or non-polar solvent): not soluble
Solubility in pyridine, ethanol solution, strong acid and strong alkaline solutions ([1]; pyridine, ethanol solution (50%˜70%), strong acid aqueous solutions (pH<2), strong alkaline solutions (pH>10)): easily soluble
Solubility in water and other high polarity solvents ([1]; water and other high polarity solvents): not soluble

CCCCCC(=O)OC[C@H]1O[C@@H](OC2CC[C@]3(C)C(CC[C@@]4(C)C3C[C@H](OC(=O)CCCCC)C3C([C@@](C)(O)CCC=C(C)C)CC[C@@]34C)C2(C)C)[C@H](OC2O[C@H](COC(=O)CCCCC)[C@@H](OC(=O)CCCCC)[C@H](OC(=O)CCCCC)[C@H]2OC(=O)CCCCC)[C@@H](OC(=O)CCCCC)[C@@H]1OC(=O)CCCCC (stereo partly drawn) [20(R)-Ginsenoside Rg3 octo-n-hexanoate]
Solubility in ethanol ([2]; ethanol): soluble
Solubility in water ([2]; water): soluble

O=P1(N(CCCl)CCCl)NCCCO1 (centres unmarked) [CTX, cyclophosphamide, reference compound]
Animal body weight (g) Start (mouse sarcoma S180 cells): 20.2 g
Animal body weight (g) end (mouse sarcoma S180 cells): 21.0 g
Anti-metastasis rate % (mouse sarcoma S180 cells): 93.84%
Lung clone numbers (mice) X ± SD (mouse sarcoma S180 cells): 0.18 ± 2.1
Animal body weight (g) Start (mouse Lewis lung cancer [3]): 20.2 g
Animal body weight (g) end (mouse Lewis lung cancer [3]): 21.9 g
Tumor inhibition rate % (mouse Lewis lung cancer [3]): 93.92%
Tumor-bearing toe weight (g) X ± SD (mouse Lewis lung cancer [3]): 0.0541 ± 0.02 g
Animal body weight (g) Start (mouse melanoma B16 cells): 20.1 g
Animal body weight (g) end (mouse melanoma B16 cells): 21.4 g
Anti-metastasis rate % (mouse melanoma B16 cells): 95.30%
Lung clone numbers (mice) X ± SD (mouse melanoma B16 cells): 2.26 ± 2.8
Animal body weight (g) Start [4]: 19.5 g
Animal body weight (g) end [4]: 21.1 g
Average survival (d) X ± SD [4]: 41.22 ± 3.5 days
Life extension rate T/C × % [4]: 181.01%
Animal body weight (g) Start [5]: 20.4 g
Animal body weight (g) end [5]: 22.0 g
Tumor inhibition rate % [5]: 89.90%
Tumor weight (g) X ± SD [5]: 0.130 ± 0.06 g
Animal body weight (g) Start [6]: 19.1 g
Animal body weight (g) end [6]: 21.0 g
Average survival (d) X ± SD [6]: 37.23 ± 3.4 days
Life extension rate T/C × % [6]: 159.44%
Animal body weight (g) Start [7]: 19.5 g
Animal body weight (g) end [7]: 21.1 g
Average survival (d) X ± SD [7]: 29.36 ± 3.3 days
Life extension rate T/C × % [7]: 214.91%
Animal body weight (g) Start (mouse Lewis lung cancer [8]): 19.4 g
Animal body weight (g) end (mouse Lewis lung cancer [8]): 21.0 g
Anti-metastasis rate % (mouse Lewis lung cancer [8]): 82.12%
Lung clone numbers (mice) X ± SD (mouse Lewis lung cancer [8]): 0.50 ± 0.09
Animal body weight (g) Start [9]: 19.6 g
Animal body weight (g) end [9]: 21.3 g
Anti-metastasis rate % [9]: 85.10%
Lung clone numbers (mice) X ± SD [9]: 0.29 ± 0.12
